Laboratory results as given in ChEMBL document CHEMBL1201862, “PubChem BioAssay data set” (2004).
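Each compound was tested at five concentrations against cells in 96-well plates for 48 hours. GI50 is the concentration that inhibits growth by half.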 The source made the active and inactive calls. Rule as the data show it: active = GI50 up to about 1.1 µM and inactive = higher.

Tests used:
Assay in all cases: NCI tumour cell line growth inhibition, 48 h
OVCAR-3 = tested on: OVCAR-3
OVCAR-4 = tested on: OVCAR-4
HT-29 = tested on: HT-29
HOP-62 = tested on: HOP-62
SF-539 = tested on: SF-539
SNB-19 = tested on: SNB-19
KM12 = tested on: KM12
TK-10 = tested on: TK-10
SN12C = tested on: SN12C
SF-295 = tested on: SF-295
NCI-H522 = tested on: NCI-H522
COLO 205 = tested on: COLO 205
PC-3 = tested on: PC-3
UO-31 = tested on: UO-31
SK-MEL-2 = tested on: SK-MEL-2
U-251 = tested on: U-251
Malme-3M = tested on: Malme-3M
BT-549 = tested on: BT-549
K562 = tested on: K562
RXF 393 = tested on: RXF 393
SK-OV-3 = tested on: SK-OV-3
MDA-MB-435 = tested on: MDA-MB-435
Hs-578T = tested on: Hs-578T
ACHN = tested on: ACHN
HCT-116 = tested on: HCT-116
HCC 2998 = tested on: HCC 2998
A498 = tested on: A498
786-0 = tested on: 786-0
UACC-257 = tested on: UACC-257
NCI-H23 = tested on: NCI-H23
MDA-MB-231 = tested on: MDA-MB-231
LOX IMVI = tested on: LOX IMVI
OVCAR-5 = tested on: OVCAR-5
CAKI-1 = tested on: CAKI-1
IGROV-1 = tested on: IGROV-1
SNB-75 = tested on: SNB-75
NCI-H226 = tested on: NCI-H226
DU-145 = tested on: DU-145
HCT-15 = tested on: HCT-15
UACC-62 = tested on: UACC-62
HL-60 = tested on: HL-60
MOLT-4 = tested on: MOLT-4
T47D = tested on: T47D
MCF7 = tested on: MCF7
NCI/ADR-RES = tested on: NCI/ADR-RES
A549 = tested on: A549
MDA-N = tested on: MDA-N
SW-620 = tested on: SW-620
CCRF-CEM = tested on: CCRF-CEM
EKVX = tested on: EKVX
SR = tested on: SR
M14 = tested on: M14
SF-268 = tested on: SF-268
OVCAR-8 = tested on: OVCAR-8
HOP-92 = tested on: HOP-92
SK-MEL-5 = tested on: SK-MEL-5
RPMI-8226 = tested on: RPMI-8226
SK-MEL-28 = tested on: SK-MEL-28

With `CC1=NC(=O)C(C)(c2ccccc2)N1CCc1ccccc1` (centres undefined) the GI50 (OVCAR-3) was 11.1 µM (inactive), the GI50 (OVCAR-4) was 25.6 µM (inactive) and the GI50 (HT-29) was 26.5 µM (inactive). The GI50 (HOP-62) was > 100 µM (inactive), the GI50 (SF-539) was 85.3 µM (inactive) and the GI50 (SNB-19) was > 100 µM (inactive). The GI50 (KM12) was 44.3 µM (inactive), the GI50 (TK-10) was > 100 µM (inactive) and the GI50 (SN12C) was > 100 µM (inactive). For the same compound, the GI50 (SF-295) was 38.5 µM (inactive), the GI50 (NCI-H522) was > 100 µM (inactive) and the GI50 (COLO 205) was 27.4 µM (inactive). The GI50 (PC-3) was 44.7 µM (inactive), the GI50 (UO-31) was > 100 µM (inactive) and the GI50 (SK-MEL-2) was > 100 µM (inactive). The GI50 (U-251) was > 100 µM (inactive), the GI50 (Malme-3M) was > 100 µM (inactive) and the GI50 (BT-549) was > 100 µM (inactive). For the same compound, the GI50 (K562) was 34.8 µM (inactive), the GI50 (RXF 393) was 24.7 µM (inactive) and the GI50 (SK-OV-3) was > 100 µM (inactive). For the same compound, the GI50 (MDA-MB-435) was 75 µM (inactive), the GI50 (Hs-578T) was > 100 µM (inactive) and the GI50 (ACHN) was > 100 µM (inactive). The GI50 (HCT-116) was 28 µM (inactive), the GI50 (HCC 2998) was 27.4 µM (inactive) and the GI50 (A498) was 21.7 µM (inactive). The GI50 (786-0) was > 100 µM (inactive), the GI50 (UACC-257) was 72.9 µM (inactive) and the GI50 (NCI-H23) was > 100 µM (inactive). For the same compound, the GI50 (MDA-MB-231) was 67.6 µM (inactive), the GI50 (LOX IMVI) was 58.7 µM (inactive) and the GI50 (OVCAR-5) was > 100 µM (inactive). For the same compound, the GI50 (CAKI-1) was > 100 µM (inactive), the GI50 (IGROV-1) was 57.8 µM (inactive) and the GI50 (SNB-75) was 16.5 µM (inactive). The GI50 (NCI-H226) was 42.7 µM (inactive), the GI50 (DU-145) was > 100 µM (inactive) and the GI50 (HCT-15) was 35.2 µM. The GI50 (UACC-62) was 44 µM (inactive), the GI50 (HL-60) was 51.5 µM (inactive) and the GI50 (MOLT-4) was 15.9 µM (inactive). For the same compound, the GI50 (T47D) was 22.3 µM (inactive), the GI50 (MCF7) was 55.1 µM (inactive) and the GI50 (NCI/ADR-RES) was 67.9 µM (inactive). The GI50 (A549) was 27.3 µM (inactive), the GI50 (MDA-N) was 36.3 µM (inactive) and the GI50 (SW-620) was 61.8 µM (inactive). For the same compound, the GI50 (CCRF-CEM) was 36.2 µM (inactive), the GI50 (EKVX) was > 100 µM (inactive) and the GI50 (SR) was 32 µM (inactive). The GI50 (M14) was > 100 µM (inactive), the GI50 (SF-268) was > 100 µM (inactive) and the GI50 (OVCAR-8) was > 100 µM (inactive). The GI50 (HOP-92) was 16.9 µM (inactive), the GI50 (SK-MEL-5) was 27 µM (inactive) and the GI50 (RPMI-8226) was 63.1 µM (inactive).

`COc1ccc(C(OCC2OC(n3cc(C)c(=O)[nH]c3=O)CC2n2cc(Cn3cc(F)c(=O)[nH]c3=O)nn2)(c2ccccc2)c2ccccc2)cc1` (centres undefined) was tested, and the GI50 (OVCAR-3) was 5.26 µM (inactive), the GI50 (OVCAR-4) was 16.4 µM (inactive) and the GI50 (HT-29) was 6.28 µM (inactive). The GI50 (HOP-62) was 4.1 µM (inactive), the GI50 (SF-539) was 4.23 µM (inactive) and the GI50 (SNB-19) was 6.07 µM (inactive). The GI50 (KM12) was 4.25 µM (inactive), the GI50 (TK-10) was 13.6 µM (inactive) and the GI50 (SN12C) was 5.71 µM (inactive). The GI50 (SF-295) was 3.26 µM (inactive), the GI50 (NCI-H522) was 3.77 µM (inactive) and the GI50 (COLO 205) was 4.97 µM (inactive). For the same compound, the GI50 (PC-3) was 4.33 µM (inactive), the GI50 (UO-31) was 9.73 µM (inactive) and the GI50 (SK-MEL-2) was 6.31 µM (inactive). The GI50 (U-251) was 3.78 µM (inactive), the GI50 (Malme-3M) was 9.04 µM (inactive) and the GI50 (BT-549) was 11.1 µM (inactive). The GI50 (RXF 393) was 10.6 µM (inactive), the GI50 (SK-OV-3) was 5.3 µM (inactive) and the GI50 (MDA-MB-435) was 1.75 µM (inactive). For the same compound, the GI50 (Hs-578T) was 6.97 µM (inactive), the GI50 (ACHN) was 10.8 µM (inactive) and the GI50 (HCT-116) was 3.38 µM (inactive). For the same compound, the GI50 (HCC 2998) was 3.31 µM (inactive), the GI50 (A498) was 10.1 µM (inactive) and the GI50 (786-0) was 3.67 µM (inactive). For the same compound, the GI50 (UACC-257) was 11.5 µM (inactive), the GI50 (NCI-H23) was 8.28 µM (inactive) and the GI50 (MDA-MB-231) was 2.69 µM (inactive). For the same compound, the GI50 (LOX IMVI) was 4.38 µM (inactive), the GI50 (OVCAR-5) was 10.4 µM (inactive) and the GI50 (CAKI-1) was 8.38 µM (inactive). The GI50 (IGROV-1) was 7.96 µM (inactive), the GI50 (SNB-75) was 12.6 µM (inactive) and the GI50 (NCI-H226) was 4.42 µM (inactive). For the same compound, the GI50 (DU-145) was 6.44 µM (inactive), the GI50 (HCT-15) was 4.5 µM and the GI50 (UACC-62) was 11 µM (inactive). For the same compound, the GI50 (HL-60) was 2.63 µM (inactive), the GI50 (MOLT-4) was 4.54 µM (inactive) and the GI50 (SK-MEL-28) was 11.3 µM (inactive). For the same compound, the GI50 (T47D) was 5.71 µM (inactive), the GI50 (MCF7) was 3.54 µM (inactive) and the GI50 (NCI/ADR-RES) was 31.6 µM (inactive). For the same compound, the GI50 (A549) was 4.1 µM (inactive), the GI50 (MDA-N) was 1.54 µM (inactive) and the GI50 (SW-620) was 3.72 µM (inactive). For the same compound, the GI50 (CCRF-CEM) was 2.56 µM (inactive), the GI50 (EKVX) was 5.65 µM (inactive) and the GI50 (SR) was 2.51 µM (inactive). The GI50 (M14) was 4.58 µM (inactive), the GI50 (SF-268) was 5.06 µM (inactive) and the GI50 (OVCAR-8) was 9.57 µM (inactive). For the same compound, the GI50 (HOP-92) was 2.62 µM (inactive), the GI50 (SK-MEL-5) was 7.82 µM (inactive) and the GI50 (RPMI-8226) was 3.04 µM (inactive).
